Source: article PMC7044277 (Nature Communications, 2020)
“And” between values parts separate entries of the source, which are not always exact repeats. Identical values can stand only once.

Legend:
Assay type in all cases: cell-based
320 non-olfactory GPCRs [1] = target: T1, 320 non-olfactory GPCRs (Homo sapiens, UniProt Q15077); conditions: receptor P2RY6; replicate values, Fig_4g
T1 construct: expressed in transfected cells; host or cells: HTLA cells

320 non-olfactory GPCRs [2] = target: 320 non-olfactory GPCRs (Homo sapiens, UniProt P32239)
Chain of 320 non-olfactory GPCRs (Homo sapiens, UniProt P32239) (P32239 whole entry): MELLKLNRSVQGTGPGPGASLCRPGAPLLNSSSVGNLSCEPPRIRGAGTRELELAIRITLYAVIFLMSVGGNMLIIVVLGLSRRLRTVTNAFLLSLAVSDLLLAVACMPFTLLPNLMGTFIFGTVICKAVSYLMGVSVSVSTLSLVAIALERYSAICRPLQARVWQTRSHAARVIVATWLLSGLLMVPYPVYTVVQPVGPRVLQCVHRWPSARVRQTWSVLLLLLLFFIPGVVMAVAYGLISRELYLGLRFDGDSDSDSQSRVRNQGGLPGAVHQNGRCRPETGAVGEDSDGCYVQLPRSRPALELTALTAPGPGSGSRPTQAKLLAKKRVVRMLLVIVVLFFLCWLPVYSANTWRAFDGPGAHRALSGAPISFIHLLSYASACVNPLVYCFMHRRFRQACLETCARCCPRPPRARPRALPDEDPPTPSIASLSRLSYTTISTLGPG

320 non-olfactory GPCRs [3] = target: T2, 320 non-olfactory GPCRs (Homo sapiens, UniProt Q96P68); conditions: receptor OXGR1; replicate values, Fig_4g
T2 construct: expressed in transfected cells; host or cells: HTLA cells

320 non-olfactory GPCRs [4] = target: T3, 320 non-olfactory GPCRs (Homo sapiens, UniProt Q15761); conditions: receptor NPY5R; replicate values, Fig_4g
T3 construct: expressed in transfected cells; host or cells: HTLA cells
T3 sequence (Q15761 whole entry): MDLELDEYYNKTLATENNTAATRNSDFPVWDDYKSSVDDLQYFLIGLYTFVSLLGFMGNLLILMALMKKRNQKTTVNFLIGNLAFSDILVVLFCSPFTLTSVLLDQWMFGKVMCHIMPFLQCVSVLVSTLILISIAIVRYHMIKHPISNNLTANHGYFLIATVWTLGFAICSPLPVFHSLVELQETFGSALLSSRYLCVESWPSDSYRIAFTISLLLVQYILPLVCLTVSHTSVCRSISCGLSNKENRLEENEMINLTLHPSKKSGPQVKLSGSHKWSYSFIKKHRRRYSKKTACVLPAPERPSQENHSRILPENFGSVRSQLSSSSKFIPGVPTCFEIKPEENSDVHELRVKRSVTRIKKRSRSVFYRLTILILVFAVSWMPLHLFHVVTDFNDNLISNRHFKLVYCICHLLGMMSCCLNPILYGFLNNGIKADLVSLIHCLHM
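Throughout, for Fold of Basal: compound tested at 1 µM final concentration.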
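Throughout, for GPCRome agonism screen response: fold over basal response of each receptor without drug.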

T1 sequence (Q15077 whole entry): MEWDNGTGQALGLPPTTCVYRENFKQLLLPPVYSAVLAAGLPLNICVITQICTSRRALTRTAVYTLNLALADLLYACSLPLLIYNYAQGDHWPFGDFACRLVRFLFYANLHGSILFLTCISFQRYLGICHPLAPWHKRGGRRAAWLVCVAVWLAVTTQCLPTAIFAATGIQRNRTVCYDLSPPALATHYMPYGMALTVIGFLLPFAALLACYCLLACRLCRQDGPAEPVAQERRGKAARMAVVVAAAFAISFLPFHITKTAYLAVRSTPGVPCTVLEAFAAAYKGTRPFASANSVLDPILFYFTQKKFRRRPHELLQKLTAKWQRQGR

CCOc1cccc2cc(C(C)NCC3(O)CCCCC3)oc12 (stereo not shown) [O4LE6]
GPCRome agonism screen response (320 non-olfactory GPCRs [1]): 0.88 and 0.9723 and 0.9546 and 1.27
Fold of Basal (320 non-olfactory GPCRs [2]): 1.067 and 0.8402 and 0.8391 and 1.015
GPCRome agonism screen response (320 non-olfactory GPCRs [3]): 1.363 and 1.785 and 0.5079 and 1.083
GPCRome agonism screen response (320 non-olfactory GPCRs [4]): 1.549 and 1.454 and 1.619 and 1.735
